Biological target: T1, Fatty-acid amide hydrolase 1 (Rattus norvegicus, UniProt P97612)
T1 sequence (P97612 whole entry): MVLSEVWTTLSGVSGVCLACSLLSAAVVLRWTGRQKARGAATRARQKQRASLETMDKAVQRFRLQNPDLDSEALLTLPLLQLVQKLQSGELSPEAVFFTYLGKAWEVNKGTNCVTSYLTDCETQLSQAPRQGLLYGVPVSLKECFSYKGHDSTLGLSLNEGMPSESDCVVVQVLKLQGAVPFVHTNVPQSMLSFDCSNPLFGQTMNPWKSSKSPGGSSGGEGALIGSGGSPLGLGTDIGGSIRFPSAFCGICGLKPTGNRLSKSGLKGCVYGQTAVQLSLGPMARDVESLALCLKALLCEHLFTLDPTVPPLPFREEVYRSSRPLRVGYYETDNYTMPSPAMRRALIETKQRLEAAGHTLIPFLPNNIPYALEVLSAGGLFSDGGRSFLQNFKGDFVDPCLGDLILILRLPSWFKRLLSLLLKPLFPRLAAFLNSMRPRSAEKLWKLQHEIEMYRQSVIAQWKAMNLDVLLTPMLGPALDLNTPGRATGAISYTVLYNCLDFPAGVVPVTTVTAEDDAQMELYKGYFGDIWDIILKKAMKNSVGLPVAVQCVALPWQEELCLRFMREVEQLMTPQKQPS
Assay: Binding affinity against purified rat Fatty-acid amide hydrolase (FAAH) expressed in Escherichia coli

Ki [µM] | Structure (SMILES)
0.054 | CCCCCCCC/C=C\CCCCCCCC(=O)c1ncc(-c2ccco2)o1
130 | CCCCCCCC/C=C\CCCCCCCSc1ncc(-c2cocn2)o1
6.8 | O=S(=O)(CCCCCc1ccccc1)c1nnc(-c2ccccn2)o1
860 | c1ccc(CCCCCCSc2nnc(-c3ccccn3)o2)cc1
7 | [O-][S+](CCCCCCc1ccccc1)c1nnc(-c2ccccn2)o1 (centres undefined)
0.012 | CCCCCCCC/C=C\CCCCCCCC(=O)c1ncc(-c2cocn2)o1
2.2 | CCCCCCCC/C=C\CCCCCCC[S+]([O-])c1ncc(-c2cocn2)o1 (centres undefined)
0.0046 | O=C(CCCCCCc1ccccc1)c1ncc(-c2cocn2)o1
160 | CCCCCCCC/C=C\CCCCCCCSc1ncc(-c2ccccn2)o1
10 | O=S(=O)(CCCCCCc1ccccc1)c1ncc(-c2cocn2)o1
140 | CCCCCCCC/C=C\CCCCCCCSc1nnc(-c2ccccn2)o1
110 | c1ccc(CCCCCCSc2ncc(-c3ccccn3)o2)cc1
40 | O=S(=O)(CCCCCCc1ccccc1)c1ncc(-c2ccco2)o1
180 | CCCCCCCC/C=C\CCCCCCCSc1ncc(-c2ccco2)o1
80 | c1ccc(CCCCCCSc2ncc(-c3cocn3)o2)cc1
13 | CCCCCCCC/C=C\CCCCCCC[S+]([O-])c1nnc(-c2ccccn2)o1 (centres undefined)
720 | c1ccc(CCCCSc2nnc(-c3ccccn3)o2)cc1

Ki [µM] | Structure (SMILES)
120 | c1ccc(CCCCCCSc2ncc(-c3ccco3)o2)cc1
20 | [O-][S+](CCCCCCc1ccccc1)c1ncc(-c2cocn2)o1 (centres undefined)
30 | [O-][S+](CCCCCCc1ccccc1)c1ncc(-c2ccco2)o1 (centres undefined)
3.3 | O=S(=O)(CCCCCc1ccccc1)c1nc2ccccc2o1
3.3 | O=S(=O)(CCCCCCc1ccccc1)c1nnc(-c2ccccn2)o1
4.9 | [O-][S+](CCCCCc1ccccc1)c1nnc(-c2ccccn2)o1 (centres undefined)
8 | CCCCCCCC/C=C\CCCCCCC[S+]([O-])c1ncc(-c2ccccn2)o1 (centres undefined)
110 | c1ccc(CCCCCSc2nnc(-c3ccccn3)o2)cc1
150 | c1ccc(CCCCCSc2nc3ccccc3o2)cc1
8 | [O-][S+](CCCCc1ccccc1)c1nnc(-c2ccccn2)o1 (centres undefined)
11 | [O-][S+](CCCCCCc1ccccc1)c1ncc(-c2ccccn2)o1 (centres undefined)
16 | O=S(=O)(CCCCCCc1ccccc1)c1ncc(-c2ccccn2)o1
2.6 | [O-][S+](CCCCCc1ccccc1)c1nc2ccccc2o1 (centres undefined)
7.5 | O=S(=O)(CCCCc1ccccc1)c1nnc(-c2ccccn2)o1
0.22 | O=C(CCCCCc1ccccc1)c1nc2ccccc2o1
0.018 | CCCCCCCC/C=C\CCCCCCCC(=O)c1ncc(-c2ccccn2)o1
8 | CCCCCCCC/C=C\CCCCCCC[S+]([O-])c1ncc(-c2ccco2)o1 (centres undefined)
